Measured values reported in US20240132531A1, “NOVEL GALACTOSIDE INHIBITOR OF GALECTINS” (GALECTO BIOTECH AB, priority 2020, published 2024).
pKd: −log10 of the molar value.

Assays:
galectin-1 = galectin-1 (Homo sapiens, UniProt P09382); assay: Fluorescence anisotropy assay, affinity for galectin-1; assay type: binding; details: compound as inhibitor of the interaction between galectin and a fluorescein tagged saccharide probe; read-out: Gal-1 Kd
Protocol: (§1) The affinity of Example 1-39 for galectins were determined by a fluorescence anisotropy assay where the compound was used as an inhibitor of the interaction between galectin and a fluorescein tagged saccharide probe as described Sarme, P., Kahl-Knutsson, B., Huflejt, M., Nilsson, U. J., and Leffler H. (2004) Fluorescence polarization as an analytical tool to evaluate galectin-ligand interactions. Anal. Biochem. 334: 36-47, (Sarme et al., 2004) and Monovalent interactions of Galectin-1 By Salomonsson, Emma; Larumbe, Amaia; Tejler, Johan; Tullberg, Erik; Rydberg, Hanna; Sundin, Anders; Khabut, Areej; Frejd, Torbjorn; Lobsanov, Yuri D.; Rini, James M.; et al, From Biochemistry (2010), 49(44), 9518-9532, (Salomonsson et al., 2010).

galectin-3 = galectin-3 (Homo sapiens, UniProt P17931); assay: Fluorescence anisotropy assay, affinity for galectin-3; assay type: binding; details: compound as inhibitor of the interaction between galectin and a fluorescein tagged saccharide probe; read-out: Gal-3 Kd
Sequence of galectin-3 (P17931 whole entry): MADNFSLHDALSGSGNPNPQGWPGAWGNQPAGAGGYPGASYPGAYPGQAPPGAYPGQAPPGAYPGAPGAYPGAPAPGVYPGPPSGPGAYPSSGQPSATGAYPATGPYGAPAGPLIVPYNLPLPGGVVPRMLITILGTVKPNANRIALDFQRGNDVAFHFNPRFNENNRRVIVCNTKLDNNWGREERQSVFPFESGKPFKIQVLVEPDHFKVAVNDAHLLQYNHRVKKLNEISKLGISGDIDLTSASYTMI
Protocol: as §1

Sequence of galectin-1 (P09382 whole entry): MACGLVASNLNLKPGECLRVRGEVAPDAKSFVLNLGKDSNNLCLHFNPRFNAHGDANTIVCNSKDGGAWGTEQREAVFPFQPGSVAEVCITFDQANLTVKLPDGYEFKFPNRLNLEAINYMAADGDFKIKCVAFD

pKd (galectin-1) | pKd (galectin-3) | Compound
7.43 | 6.43 | Cc1cc([C@@H]2OC(CO)[C@H](O)C(n3cc(-c4nc(Cl)cs4)nn3)C2O)n(-c2cc(Cl)ccc2C(F)(F)F)n1 (stereo partly drawn) [Example 9, 1-{5-{3-[4-(4-Chlorothiazol-2-yl)-1H-1,2,3-triazol-1-yl]-3-deoxy-β-D-galactopyranosyl}-3-methyl-1H-1,2-pyrazol-1-yl}-5-chloro-2-(trifluoromethyl)benzene]
7.40 | 6.74 | COC1C(n2cc(-c3nc(Cl)cs3)nn2)[C@@H](O)C(CO)O[C@H]1c1cc(Cl)nn1-c1cc(Cl)ccc1C(F)(F)F (stereo partly drawn) [Example 25, 1-{5-{3-[4-(4-Chlorothiazol-2-yl)-1H-1,2,3-triazol-1-yl]-3-deoxy-2-O-methyl-β-D-galactopyranosyl}-3-chloro-1H-1,2-pyrazol-1-yl}-5-chloro-2-(trifluoromethyl)benzene]
6.38 | 6.49 | COC1C(n2cc(-c3nc(Cl)cs3)nn2)[C@@H](O)C(CO)O[C@H]1c1cc(C(=O)O)nn1-c1cc(Cl)ccc1C(F)(F)F (stereo partly drawn) [Example 18, 1-{3-Carboxy-5-{3-[4-(4-chlorothiazol-2-yl)-1H-1,2,3-triazol-1-yl]-3-deoxy-2-O-methyl-β-D-galactopyranosyl}-1H-1,2-pyrazol-1-yl}-5-chloro-2-(trifluoromethyl)benzene]
7.31 | 5.17 | COC1C(n2cc(-c3csc(N)n3)nn2)[C@@H](O)C(CO)O[C@H]1c1ccnn1-c1cc(Cl)ccc1C(F)(F)F (stereo partly drawn) [Example 34, 1-{5-{3-[4-(2-Aminothiazol-4-yl)-1H-1,2,3-triazol-1-yl]-3-deoxy-2-O-methyl-β-D-galactopyranosyl}-1H-1,2-pyrazol-1-yl}-5-chloro-2-(trifluoromethyl)benzene]
7.37 | 6.55 | OCC1O[C@@H](c2ccnn2-c2cc(Br)ccc2C(F)(F)F)C(O)C(n2cc(-c3nc(Cl)cs3)nn2)[C@H]1O (stereo partly drawn) [Example 19, 5-Bromo-1-{5-{3-[4-(4-chlorothiazol-2-yl)-1H-1,2,3-triazol-1-yl]-3-deoxy-β-D-galactopyranosyl}-1H-1,2-pyrazol-1-yl}-2-(trifluoromethyl)benzene]
7.49 | 6.28 | COC1C(n2cc(-c3nc(Cl)cs3)nn2)[C@@H](O)C(CO)O[C@H]1c1ccnn1-c1cc(Br)cnc1C(F)(F)F (stereo partly drawn) [Example 33, 5-Bromo-3-{5-{3-[4-(4-chlorothiazol-2-yl)-1H-1,2,3-triazol-1-yl]-3-deoxy-2-O-methyl-β-D-galactopyranosyl}-1H-1,2-pyrazol-1-yl}-2-(trifluoromethyl)pyridine]
7.51 | 5.38 | COC1C(n2cc(-c3csc(O)n3)nn2)[C@@H](O)C(CO)O[C@H]1c1ccnn1-c1cc(Cl)ccc1C(F)(F)F (stereo partly drawn) [Example 35, 5-Chloro-1-{5-{3-deoxy-3-[4-(2-hydroxythiazol-4-yl)-1H-1,2,3-triazol-1-yl]-2-O-methyl-β-D-galactopyranosyl}-1H-1,2-pyrazol-1-yl}-2-(trifluoromethyl)benzene]
6.33 | 6.36 | COC1C(n2cc(-c3ncc(C)s3)nn2)[C@@H](O)C(CO)O[C@H]1c1ccnn1-c1cc(Cl)ccc1C(F)(F)F (stereo partly drawn) [Example 3, 5-Chloro-1-{5-{3-deoxy-3-[4-(5-methylthiazol-2-yl)-1H-1,2,3-triazol-1-yl]-2-O-methyl-β-D-galactopyranosyl}-1H-1,2-pyrazol-1-yl}-2-(trifluoromethyl)benzene]
6.72 | 6.32 | C=Cc1cc([C@@H]2OC(CO)[C@H](O)C(n3cc(-c4nc(Cl)cs4)nn3)C2OC)n(-c2cc(Cl)ccc2C(F)(F)F)n1 (stereo partly drawn) [Example 29, 1-{5-{3-[4-(4-Chlorothiazol-2-yl)-1H-1,2,3-triazol-1-yl]-3-deoxy-2-O-methyl-β-D-galactopyranosyl}-3-ethenyl-1H-1,2-pyrazol-1-yl}-5-chloro-2-(trifluoromethyl)benzene]
7.42 | 5.82 | COC1C(n2cc(-c3nc(Cl)cs3)nn2)[C@@H](O)C(CO)O[C@H]1c1ccnn1-c1ccc2nc(C)sc2c1 (stereo partly drawn) [Example 16, 1-{5-{3-[4-(4-Chlorothiazol-2-yl)-1H-1,2,3-triazol-1-yl]-3-deoxy-2-O-methyl-β-D-galactopyranosyl}-1H-1,2-pyrazol-1-yl}-2-methylbenzothiazole]
7.62 | 6.41 | COC1C(n2cc(-c3ncc(Cl)s3)nn2)[C@@H](O)C(CO)O[C@H]1c1ccnn1-c1cc(Cl)ccc1C(F)(F)F (stereo partly drawn) [Example 12, 1-{5-{3-[4-(5-Chlorothiazol-2-yl)-1H-1,2,3-triazol-1-yl]-3-deoxy-2-O-methyl-β-D-galactopyranosyl}-1H-1,2-pyrazol-1-yl}-5-chloro-2-(trifluoromethyl)benzene]
7.15 | 6.40 | COC1C(n2cc(-c3nc(Cl)cs3)nn2)[C@@H](O)C(CO)O[C@H]1c1cc(C#N)nn1-c1cc(Cl)ccc1C(F)(F)F (stereo partly drawn) [Example 31, 1-{5-{3-[4-(4-Chlorothiazol-2-yl)-1H-1,2,3-triazol-1-yl]-3-deoxy-2-O-methyl-β-D-galactopyranosyl}-3-cyano-1H-1,2-pyrazol-1-yl}-5-chloro-2-(trifluoromethyl)benzene]
7.51 | 6.39 | COC1C(n2cc(-c3nc(Cl)cs3)nn2)[C@@H](O)C(CO)O[C@H]1c1ccnn1-c1cc(Br)ccc1C(F)(F)F (stereo partly drawn) [Example 20, 5-Bromo-1-{5-{3-[4-(4-chlorothiazol-2-yl)-1H-1,2,3-triazol-1-yl]-3-deoxy-2-O-methyl-β-D-galactopyranosyl}-1H-1,2-pyrazol-1-yl}-2-(trifluoromethyl)benzene]
6.74 | 6.49 | COC1C(n2cc(-c3nc(Cl)cs3)nn2)[C@@H](O)C(CO)O[C@H]1c1cc(C(C)C)nn1-c1cc(Cl)ccc1C(F)(F)F (stereo partly drawn) [Example 28, 1-{5-{3-[4-(4-Chlorothiazol-2-yl)-1H-1,2,3-triazol-1-yl]-3-deoxy-2-O-methyl-β-D-galactopyranosyl}-3-isopropyl-1H-1,2-pyrazol-1-yl}-5-chloro-2-(trifluoromethyl)benzene]
7.46 | 5.96 | COC1C(n2cc(-c3nc(Cl)cs3)nn2)[C@@H](O)C(CO)O[C@H]1c1ccnn1-c1cc(Cl)c(Cl)cc1C(F)(F)F (stereo partly drawn) [Example 21, 1-{5-{3-[4-(4-Chlorothiazol-2-yl)-1H-1,2,3-triazol-1-yl]-3-deoxy-2-O-methyl-β-D-galactopyranosyl}-1H-1,2-pyrazol-1-yl}-4,5-dichloro-2-(trifluoromethyl)benzene]
6.82 | 5.28 | COC1C(n2cc(-c3nccs3)nn2)[C@@H](O)C(CO)O[C@H]1c1cc(C)nn1-c1cc(Cl)ccc1C(F)(F)F (stereo partly drawn) [Example 14, 5-Chloro-1-{5-{3-deoxy-2-O-methyl-3-[4-(2-thiazolyl)-1H-1,2,3-triazol-1-yl]-β-D-galactopyranosyl}-3-methyl-1H-1,2-pyrazol-1-yl}-2-(trifluoromethyl)benzene]
7.17 | 5.70 | COC1C(n2cc(-c3nc(Cl)cs3)nn2)[C@@H](O)C(CO)O[C@H]1c1cc(C)nn1-c1ccc2nc(C)sc2c1 (stereo partly drawn) [Example 15, 1-{5-{3-[4-(4-Chlorothiazol-2-yl)-1H-1,2,3-triazol-1-yl]-3-deoxy-2-O-methyl-β-D-galactopyranosyl}-3-methyl-1H-1,2-pyrazol-1-yl}-2-methylbenzothiazole]
6.68 | 5.32 | OCC1O[C@@H](c2ccnn2-c2cc(Cl)ccc2C(F)(F)F)C(O)C(n2cc(-c3nccs3)nn2)[C@H]1O (stereo partly drawn) [Example 5, 5-Chloro-1-{5-{3-deoxy-3-[4-(2-thiazolyl)-1H-1,2,3-triazol-1-yl]-β-D-galactopyranosyl}-1H-1,2-pyrazol-1-yl}-2-(trifluoromethyl)benzene]
7.54 | 5.23 | OCC1O[C@@H](c2ccnn2-c2cc(Cl)ccc2C(F)(F)F)C(O)C(n2cc(-c3csc(O)n3)nn2)[C@H]1O (stereo partly drawn) [Example 7, 5-Chloro-1-{5-{3-deoxy-3-[4-(2-hydroxythiazol-4-yl)-1H-1,2,3-triazol-1-yl]-β-D-galactopyranosyl}-1H-1,2-pyrazol-1-yl}-2-(trifluoromethyl)benzene]
6.92 | 4.97 | Nc1nc(-c2cn(C3C(O)[C@H](c4ccnn4-c4cc(Cl)ccc4C(F)(F)F)OC(CO)[C@@H]3O)nn2)cs1 (stereo partly drawn) [Example 6, 1-{5-{3-[4-(2-Aminothiazol-4-yl)-1H-1,2,3-triazol-1-yl]-3-deoxy-β-D-galactopyranosyl}-1H-1,2-pyrazol-1-yl}-5-chloro-2-(trifluoromethyl)benzene]
7.77 | 5.33 | COC1C(n2cc(-c3csc(O)n3)nn2)[C@@H](O)C(CO)O[C@H]1c1ccnn1-c1cc(Br)c(F)cc1C(F)(F)F (stereo partly drawn) [Example 37, 5-Bromo-1-{5-{3-deoxy-3-[4-(2-hydroxythiazol-4-yl)-1H-1,2,3-triazol-1-yl]-2-O-methyl-β-D-galactopyranosyl}-1H-1,2-pyrazol-1-yl}-4-fluoro-2-(trifluoromethyl)benzene]
7.30 | 6.19 | COC1C(n2cc(-c3nc(Cl)cs3)nn2)[C@@H](O)C(CO)O[C@H]1c1ccnn1-c1cc(Cl)cnc1C(F)(F)F (stereo partly drawn) [Example 32, 3-{5-{3-[4-(4-Chlorothiazol-2-yl)-1H-1,2,3-triazol-1-yl]-3-deoxy-2-O-methyl-β-D-galactopyranosyl}-1H-1,2-pyrazol-1-yl}-5-chloro-2-(trifluoromethyl)pyridine]
